Source: article PMC10610379, “Epidrugs as Promising Tools to Eliminate Plasmodium falciparum Artemisinin-Resistant and Quiescent Parasites” (Pharmaceutics, 2023)
Several values for one entry are separate records, joined by “and”; a condition that tells them apart may be missing. Equal entries are not always repeated. Where two headings read alike, the source gives them in different places.

Legend:
[1] = test system: Plasmodium falciparum F32-ART (artemisinin-resistant strain); experiment: Standard chemosensitivity assay (SYBR Green I), F32-ART; assay type: cell-based; settings: for IC50: F32-ART, 48 h incubation, SYBR Green I, mean ± SEM of 3 experiments (* mean of 2), read-out: Antiplasmodial Activity: IC50, F32-ART; for Selectivity Index CC50/IC50: ratio cytotoxicity (mammalian cell type of the CC50)/antiplasmodial activity on F32-ART
Protocol: (§1) They differ by eight mutations in seven genes (PF3D7_0110400, PF3D7_1343700, PF3D7_0213400, PF3D7_1115700, PF3D7_1302100, PF3D7_1459600, PF3D7_1464500) among them the M476I mutation on the kelch13 gene. F32-ART and F32-TEM strains have RSA^0–3 h values up to 12% and less than 0.1%, respectively. […] Both strains were cultured, in the same conditions, according to the Trager and Jensen protocol with modifications. Briefly, parasites were cultivated in RPMI-1640 medium (Biowest) at 2% hematocrit in human red blood cells and 5% human serum (EFS, French Blood Bank) under 5% CO2 in a humid atmosphere at 37 °C.
(§2) The antimalarial activities of the compounds were evaluated on both strains. […] Antimalarial activities were determined with the SYBR Green I method. Each drug concentration was tested in triplicate. The parasites were incubated with the drugs for 48 h. Plates were read on a BioTek FLX800 Microplate Fluorescence Reader (Bio-Tek instruments, Winooski, VT, USA) (λexcitation = 485 nm, λemission = 528 nm). Control parasite culture (i.e., RPMI with 0.5% DMSO) was referred to as 100% growth. IC50 and IC90 values were determined using GraphPad Prism version 7.05 (GraphPad Software, San Diego, CA, USA). Results were the mean of 3 independent experiments. When it is relevant, statistical significance between results obtained with both parasite strains was determined by a Mann–Whitney test using GraphPad Prism version 7.05.

[2] = test system: Plasmodium falciparum F32-TEM (artemisinin-sensitive twin line); experiment: Standard chemosensitivity assay (SYBR Green I), F32-TEM; assay type: cell-based; settings: Plasmodium falciparum; F32-TEM, 48 h incubation, SYBR Green I; mean ± SEM of 3 experiments (* mean of 2); read-out: Antiplasmodial Activity: IC50, F32-TEM
Protocol: as §1, §2

NFF = settings: cited from earlier work
H3K4me3 = experiment: Immunoblotting, histone mark abundance in F32-ART parasites; assay type: cell-based, Plasmodium falciparum; settings: 270 nM
Protocol: (§3) Abundance of methylated and acetylated histone was determined in parasite cultures in different conditions: “not-treated”, “DHA 24 h”, “DHA 6 h/DHA 24 h” and “DHA 6 h/DHA + compound to be tested 24 h”. At the end of the treatments, parasite cultures were washed in RPMI-1640 and then twice in PBS 1× before red blood cell lysis with 0.075% saponin (Sigma-Aldrich) in PBS. Parasite ghosts were washed 3 times in PBS before incubating the ghosts with E1A lysis buffer (50 mM Hepes pH 7.5; 250 mM NaCl; 5 mM EDTA; 0.1% Triton X-100, 1 mM DTT, 0.2 mM PMSF supplemented with complete Mini EDTA-free protease inhibitor cocktail (Roche®, Basel, Switzerland)) for 15 min. Ghosts were then sonicated for 3 × 15s ON/OFF cycles to shear parasite membranes. Debris were pelleted by centrifuging for 15 min at 13,800× g and 4 °C, and supernatants (containing parasitic proteins) were then collected. Protein concentrations were determined using BCA assay (Bio-Rad, Hercules, CA, USA) according to the manufacturer’s instructions. For each sample, 10 µg of proteins were mixed with 4× sample buffer (10 mL 50% Glycerol, 5 mL 0.5 M Tris HCl pH 6.8, 4 mL 20% SDS, 0.02% Bromophenol blue for a total solution volume of 20 mL) and 100 mM DTT and then separated on 15% SDS-PAGE gels in Laemmli running buffer. Gels were then wet-transferred O/N at 20 V onto PVDF membranes. Membranes were blocked in TBST for 1 h at room temperature. Bottom parts were then probed with histone antibodies while upper parts were probed with PFALDOLASE antibody (Abcam, ab38905, Cambridge, UK) at 1:20,000 dilution. The following primary antibodies were used: anti-H3K4me1 (Abcam, ab8895); anti-H3K4me2 (Abcam, ab35356); anti-H3K9me2 (Abcam, ab1220); anti-H3K9me3 (Millipore, 07-442, Burlington, MA, USA); anti-tetra-acetyl H4 (Millipore, 06-866); anti-H4K8Ac (Millipore, 07-328); anti-H4K20me3 (Abcam, ab9053); anti-H3K4me3 (Diagenode) and anti-H3K9Ac (Millipore, 07-352) at 1:10,000. The following secondary antibodies were used: anti-rabbit IgG-Peroxidase produced in goat (Sigma-Aldrich) or anti-mouse IgG-Peroxidase (Sigma-Aldrich); at 1:20,000 dilutions. Blots were developed using ECL Prime Western Blotting (GE Healthcare, Chicago, IL, USA) and read on a Chemidoc touch imaging software. Densitometry analysis was performed by using ImageLab software from Bio-Rad. To determine if variations in histone abundances were statistically significant, immunoblotting experiments were performed on 3 biological replicates and each run was performed twice.

H3K4me1 = experiment: as above; assay type: cell-based, Plasmodium falciparum; settings: 270 nM
Protocol: as §3

H4K20me3 = experiment: as above; assay type: cell-based, Plasmodium falciparum; settings: 270 nM
Protocol: as §3

H3K4me2 = experiment: as above; assay type: cell-based, Plasmodium falciparum; settings: 270 nM
Protocol: as §3

[3] = test system: ART-resistant parasites F32-ART at the quiescent stage; experiment: Modified QSA, 24-h exposure; assay type: cell-based, Plasmodium falciparum; settings: DHA 700 nM, compound at its IC90, 24-h exposure
Protocol: Epidrugs were tested at their IC90 values. In the present study, quiescence was induced using 3 µM of ART or 700 nM of DHA [28]. Thus, D-sorbitol synchronized ring-stage parasites at 3% parasitemia and 2% hematocrit (5 mL of culture per well in 6-well plates) were first exposed to 6 h of ART or DHA to induce quiescence and then to 48 h of the combination “ART or DHA + compound to be tested”. The combinations “ART 6 h/ART 48 h” or “DHA 6 h/DHA 48 h” were used as controls. The compounds were evaluated, in parallel, on proliferating parasites, i.e., without any pre-treatment. […] The parasitemia for each condition was then microscopically monitored every 2 days. […] When relevant, statistical significance between results obtained for the conditions “ART/ART” and “ART/ART + compound to be tested” or “DHA/DHA” and “DHA/DHA + compound to be tested” was determined by a Log Rank (Mantel Cox) test using GraphPad Prism version 7.05. […]
To collect enough material for immunoblotting, we performed the analysis after a 24-h exposure of DHA-treated parasites to the epidrug and in parallel evaluated the activity of the three epidrugs in a modified QSA, in which quiescent parasites were exposed to the drug to be tested for 24 instead of 48 h, as in our previous experiments (Figure 2).

HFF = settings: read-out: Cytotoxicity: CC50 (HFF), data from literature ref 48; cited from earlier work
[4] = test system: ART-resistant parasites F32-ART at the quiescent stage; experiment: Quiescent-stage Survival Assay (QSA), 48-h exposure; assay type: cell-based, Plasmodium falciparum
Protocol: The sensitivity of the ART-resistant parasites F32-ART at the quiescent stage towards the different molecules was determined using the QSA (Quiescent-stage Survival Assay), as previously described.
Epidrugs were tested at their IC90 values. In the present study, quiescence was induced using 3 µM of ART or 700 nM of DHA [28]. Thus, D-sorbitol synchronized ring-stage parasites at 3% parasitemia and 2% hematocrit (5 mL of culture per well in 6-well plates) were first exposed to 6 h of ART or DHA to induce quiescence and then to 48 h of the combination “ART or DHA + compound to be tested”. The combinations “ART 6 h/ART 48 h” or “DHA 6 h/DHA 48 h” were used as controls. The compounds were evaluated, in parallel, on proliferating parasites, i.e., without any pre-treatment. After drug exposure, parasite cultures were washed with 40 mL of RPMI-1640 medium and cultured in drug-free conditions supplemented with 10% human serum in new wells. The parasitemia for each condition was then microscopically monitored every 2 days. Culture media were renewed twice a week and 25 µL of fresh red blood cells were added once a week. Obtained data were used to perform Kaplan–Meier survival analyses considering censored data. The outcome was defined as the day when parasite cultures reached the initial parasitemia (3%) and data were considered as censored if no parasite recrudescence was observed during the 30-day experiment timeframe. When relevant, statistical significance between results obtained for the conditions “ART/ART” and “ART/ART + compound to be tested” or “DHA/DHA” and “DHA/DHA + compound to be tested” was determined by a Log Rank (Mantel Cox) test using GraphPad Prism version 7.05. For the best compounds targeting histones, in order to compare western blots data, modified QSAs were carried out by comparing “DHA 6 h/DHA 24 h” versus “DHA 6 h/DHA + compound to be tested 24 h”.

[5] = 24 h, F32-ART ring stage proliferating, 3 replicates (Fig 3C)
[6] = DHA 6 h/DHA + TM2-115 24 h, F32-ART DHA-treated parasites, 3 replicates (Fig 3G)

Structure (SMILES) | IC50 ([1]; Plasmodium falciparum) | Selectivity Index CC50/IC50 [1] | IC50 [2] | CC50 (NFF; read-out: Cytotoxicity: CC50 (NFF), data from literature ref 40) | CC50 (NFF; read-out: Cytotoxicity: CC50 (NFF), data from literature ref 43) | IC90 ([1]; Plasmodium falciparum, F32, concentration used in QSA and immunoblotting) | Fold change of H3K4me3 abundance, TM2-115 vs DMSO (H3K4me3; [5]) | Fold change of H3K4me3 abundance, TM2-115, quiescent stage (H3K4me3; [6]) | Fold change of H3K4me1 abundance, TM2-115 vs DMSO (H3K4me1; [5]) | Fold change of H3K4me1 abundance, TM2-115, quiescent stage (H3K4me1; [6]) | Fold change of H4K20me3 abundance, TM2-115 vs DMSO (H4K20me3; [5]) | Fold change of H4K20me3 abundance, TM2-115, quiescent stage (H4K20me3; [6]) | Fold change of H3K4me2 abundance, TM2-115 vs DMSO (H3K4me2; [5]) | Fold change of H3K4me2 abundance, TM2-115, quiescent stage (H3K4me2; [6]) | Recrudescence in modified QSA, DHA 6 h/DHA + compound 24 h vs DHA 6 h/DHA 24 h [3] | CC50 (HFF) | Delay in parasite recrudescence time (difference between median recrudescence times), ART/ART + compound vs ART/ART ([4]; quiescence induced with ART 3 µM 6 h, then 48 h ART + compound at its IC90) | Delay in recrudescence time, DHA/DHA + compound vs DHA/DHA ([4]; quiescence induced with DHA 700 nM 6 h, then 48 h DHA + compound at its IC90)
CC(/C=C/C(=O)NO)=C\[C@@H](C)C(=O)c1ccc(N(C)C)cc1 [Trichostatin A] | 29 ± 12 nM | 7 | 30 ± 3 nM | 200 nM |  |  |  |  |  |  |  |  |  |  |  |  |  | 
O=C(CCCCCCC(=O)Nc1ccccc1)NO [SAHA] |  |  |  |  | 5500 nM |  |  |  |  |  |  |  |  |  |  |  |  | 
COc1cc2c(NC3CCN(C)CC3)nc(N3CCCN(C)CC3)nc2cc1OCc1ccccc1 [TM2-115] | 128 ± 30 nM | 45 | 104 ± 32 nM |  |  | 270 nM | 1.39 and 1.69 and 1.12 | did not induce a quantifiable change and 0.81 and 0.67 and 1.16 | 1.37 and 0.47 and 2.10 | did not induce a quantifiable change and 0.51 and 1.07 and 0.76 | inhibited H4K20 methylation and 0.82 and 0.71 and 0.76 | did not induce a quantifiable change and 1.10 and 1.20 and 0.97 | 1.31 and 1.11 and 0.85 | did not induce a quantifiable change and 1.00 and 0.95 and 0.47 | clearly impaired quiescent parasite survival | 5700 nM | 9.5 days | ≥ 6 days
